Several values for one entry are separate records, joined by “and”; a condition that tells them apart may be missing. Identical values can stand only once. Numbered stars: 1 amine (or outer) side, 2 acyl side, 3 side chain; on linkers, the order of the positions; unused ones are H or OH. Bridge positions count the residues as written; N and C are the ends. Square brackets hold non-standard residues; d marks the D form. * marks the point of attachment. PEG24 = NCCOCCOCCOCCOCCOCCOCCOCCOCCOCCOCCOCCOCCOCCOCCOCCOCCOCCOCCOCCOCCOCCOCCOCCOCCC(=O)O; C20 diacid = O=C(O)CCCCCCCCCCCCCCCCCCC(=O)*; γGlu = O=C(O)[C@H](CCC(=O)[*:2])N[*:1]; CH2 = C([*:1])[*:2]; βAla = NCCC(=O)O
Columns and labels:
[1] = molecular target: T1, human NPRA (Homo sapiens, UniProt P16066); assay: Human NPRA cGMP activity assay (HTRF) in HEK293 cells overexpressing NPRA; format: cell-based
T1 construct: Full-Length cDNA Cloning and Generation of Cell Lines Overexpressing Natriuretic Peptide Receptors (NPRs); expressed in transfected cells; host or cells: Jump-in T-Rex HEK293 cells, pJTI R4 CMV-TO MCS pA vector, tetracycline induction
T1 sequence (P16066 33-1061): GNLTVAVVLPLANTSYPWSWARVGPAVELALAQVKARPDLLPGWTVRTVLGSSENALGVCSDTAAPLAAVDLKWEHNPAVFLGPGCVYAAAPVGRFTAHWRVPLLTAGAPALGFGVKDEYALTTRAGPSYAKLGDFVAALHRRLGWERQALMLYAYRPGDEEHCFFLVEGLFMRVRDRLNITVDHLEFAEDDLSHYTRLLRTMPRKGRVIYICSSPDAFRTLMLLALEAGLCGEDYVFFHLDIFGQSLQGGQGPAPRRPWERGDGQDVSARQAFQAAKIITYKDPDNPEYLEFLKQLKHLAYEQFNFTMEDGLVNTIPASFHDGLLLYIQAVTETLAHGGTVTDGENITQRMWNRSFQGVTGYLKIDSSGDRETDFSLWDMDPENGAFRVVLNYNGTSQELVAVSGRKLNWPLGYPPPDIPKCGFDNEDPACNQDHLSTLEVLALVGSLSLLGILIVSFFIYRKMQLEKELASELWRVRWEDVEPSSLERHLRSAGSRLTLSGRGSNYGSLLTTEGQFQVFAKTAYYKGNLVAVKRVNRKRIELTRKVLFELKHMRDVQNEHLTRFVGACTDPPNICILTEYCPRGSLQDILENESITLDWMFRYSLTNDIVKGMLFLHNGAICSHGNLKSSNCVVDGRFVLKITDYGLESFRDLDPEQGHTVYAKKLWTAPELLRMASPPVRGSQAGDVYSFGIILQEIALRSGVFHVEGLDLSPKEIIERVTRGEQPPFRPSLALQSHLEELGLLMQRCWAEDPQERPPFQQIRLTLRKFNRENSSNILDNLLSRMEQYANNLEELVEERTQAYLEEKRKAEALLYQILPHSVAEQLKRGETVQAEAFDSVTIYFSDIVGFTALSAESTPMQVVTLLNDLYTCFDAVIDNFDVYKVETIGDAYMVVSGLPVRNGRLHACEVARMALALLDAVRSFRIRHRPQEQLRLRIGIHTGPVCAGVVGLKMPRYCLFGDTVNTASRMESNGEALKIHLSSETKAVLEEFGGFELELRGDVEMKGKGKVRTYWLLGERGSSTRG
Procedure, shortened: (§1)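 cGMP measured by HTRF and scaled between buffer (minimum) and 100 nM amidated rat ANP (maximum). Polypeptides in 10-fold steps from 10 μM to 1 pM, 0.5% DMSO, 0.5 mM IBMX, 40 min at room temperature, on induced NPRA-overexpressing HEK293 cells.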

[2] = Pharmacokinetics in male Sprague Dawley rats; format: in vivo; details: rat, sc, mean, single subcutaneous administration of 200 nMol/kg, plasma; for half-life: read-out: t½ (converted)
Protocol: The pharmacokinetics of the exemplary analogs are evaluated following a single subcutaneous administration of […] to male Sprague Dawley rats. Blood samples are collected over 120 hours, and resulting individual plasma concentrations are used to calculate pharmacokinetic parameters. Peptide plasma (K3 EDTA) concentrations are determined using a qualified LC/MS method that measured the intact mass of the ANP polypeptide. Each peptide and an analog as an internal standard are extracted from 100% specie specified plasma using methanol with 0.1% formic acid. A Thermo Q-Exactive, High Resolution Instrument, and a Thermo Easy Spray PepMap are combined for LC/MS detection.

[3] = molecular target: T2, rat NPRA (Rattus norvegicus, UniProt P18910); assay: Rat NPRA cGMP activity assay (HTRF) in HEK293 cells overexpressing NPRA; format: cell-based; details: assay buffer with 0.1% casein, read-out: cGMP Assay (EC50, pM) w/Casein rNPRA
T2 construct: Full-Length cDNA Cloning and Generation of Cell Lines Overexpressing Natriuretic Peptide Receptors (NPRs); expressed in transfected cells; host or cells: Jump-in T-Rex HEK293 cells, pJTI R4 CMV-TO MCS pA vector, tetracycline induction
T2 sequence (P18910 29-1057): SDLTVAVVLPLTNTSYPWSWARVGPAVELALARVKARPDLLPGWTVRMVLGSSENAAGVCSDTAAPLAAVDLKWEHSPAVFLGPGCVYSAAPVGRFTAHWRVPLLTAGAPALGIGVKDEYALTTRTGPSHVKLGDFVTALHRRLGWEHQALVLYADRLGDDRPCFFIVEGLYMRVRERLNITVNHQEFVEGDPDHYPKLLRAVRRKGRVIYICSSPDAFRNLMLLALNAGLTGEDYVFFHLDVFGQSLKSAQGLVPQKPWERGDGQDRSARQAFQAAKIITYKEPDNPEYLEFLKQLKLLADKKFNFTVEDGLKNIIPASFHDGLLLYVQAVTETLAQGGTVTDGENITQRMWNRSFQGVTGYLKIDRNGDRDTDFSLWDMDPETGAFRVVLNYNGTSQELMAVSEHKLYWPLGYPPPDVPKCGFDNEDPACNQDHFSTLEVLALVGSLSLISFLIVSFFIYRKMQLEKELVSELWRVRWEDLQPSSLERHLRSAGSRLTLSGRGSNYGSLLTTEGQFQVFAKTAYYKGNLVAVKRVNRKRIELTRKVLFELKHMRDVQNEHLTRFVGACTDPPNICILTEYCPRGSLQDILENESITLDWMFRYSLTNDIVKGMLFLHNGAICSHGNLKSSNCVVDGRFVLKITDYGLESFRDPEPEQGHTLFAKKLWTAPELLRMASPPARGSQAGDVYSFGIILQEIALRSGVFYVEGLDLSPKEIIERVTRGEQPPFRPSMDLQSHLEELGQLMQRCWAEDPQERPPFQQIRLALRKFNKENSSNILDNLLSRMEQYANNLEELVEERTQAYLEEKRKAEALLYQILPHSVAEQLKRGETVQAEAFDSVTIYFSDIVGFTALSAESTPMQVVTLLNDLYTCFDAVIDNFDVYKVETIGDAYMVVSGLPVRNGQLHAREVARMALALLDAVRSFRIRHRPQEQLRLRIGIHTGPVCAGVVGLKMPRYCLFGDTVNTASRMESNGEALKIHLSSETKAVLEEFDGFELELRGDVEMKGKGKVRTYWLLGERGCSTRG
Procedure, shortened: as §1

[4] = molecular target: human NPRA (human) (UniProt P16066); assay: cell-based or functional assay
[5] = system: SAUNA Mouse Model; assay: Salty drinking water/Unilateral Nephrectomy/Aldosterone (SAUNA) mouse model of heart failure; format: in vivo, male C57BL/6N mice; details: SAUNA mice, once daily SC 0.4 mg/kg
Description: The effect of Exemplary ANP polypeptides is investigated in the Salty drinking water/Unilateral Nephrectomy/Aldosterone (SAUNA) Mouse Model, murine model of heart failure induced by chronic aldosterone infusion. After acclimation for approximately 2 weeks, heart failure is induced in male C57BL/6N (Taconic) mice by uninephrectomy, continuous d-aldosterone infusion and 1.0% sodium chloride in drinking water for 4 weeks (Tanaka et al., 2016; Valero-Munoz, Li, Wilson, Boldbaatar, et al., 2016; Valero-Munoz, Li, Wilson, Hulsmans, et al., 2016; Yang, Kong, Shuai, Zhang, & Huang, 2020; Yoon et al., 2021). […] The pressure volume (PV) catheter is introduced into the left ventricle via apical stab with a 27G needle. Calibration of the PV catheter is performed according to the manufacturer's instructions. Data are analyzed with LabChart pro software (AD Instruments). After PV loop measurements, mice are sacrificed, and ratio of heart weight to tibia length is used for indicator of hypertrophy.

[6] = molecular target: human NPRB (natriuretic peptide receptor B) (human) (UniProt P20594); assay: cell-based or functional assay
[7] = molecular target: rat NPRB (natriuretic peptide receptor B) (rat) (UniProt P16067); assay: cell-based or functional assay
Chain of rat NPRB (natriuretic peptide receptor B) (rat) (P16067 17-1047): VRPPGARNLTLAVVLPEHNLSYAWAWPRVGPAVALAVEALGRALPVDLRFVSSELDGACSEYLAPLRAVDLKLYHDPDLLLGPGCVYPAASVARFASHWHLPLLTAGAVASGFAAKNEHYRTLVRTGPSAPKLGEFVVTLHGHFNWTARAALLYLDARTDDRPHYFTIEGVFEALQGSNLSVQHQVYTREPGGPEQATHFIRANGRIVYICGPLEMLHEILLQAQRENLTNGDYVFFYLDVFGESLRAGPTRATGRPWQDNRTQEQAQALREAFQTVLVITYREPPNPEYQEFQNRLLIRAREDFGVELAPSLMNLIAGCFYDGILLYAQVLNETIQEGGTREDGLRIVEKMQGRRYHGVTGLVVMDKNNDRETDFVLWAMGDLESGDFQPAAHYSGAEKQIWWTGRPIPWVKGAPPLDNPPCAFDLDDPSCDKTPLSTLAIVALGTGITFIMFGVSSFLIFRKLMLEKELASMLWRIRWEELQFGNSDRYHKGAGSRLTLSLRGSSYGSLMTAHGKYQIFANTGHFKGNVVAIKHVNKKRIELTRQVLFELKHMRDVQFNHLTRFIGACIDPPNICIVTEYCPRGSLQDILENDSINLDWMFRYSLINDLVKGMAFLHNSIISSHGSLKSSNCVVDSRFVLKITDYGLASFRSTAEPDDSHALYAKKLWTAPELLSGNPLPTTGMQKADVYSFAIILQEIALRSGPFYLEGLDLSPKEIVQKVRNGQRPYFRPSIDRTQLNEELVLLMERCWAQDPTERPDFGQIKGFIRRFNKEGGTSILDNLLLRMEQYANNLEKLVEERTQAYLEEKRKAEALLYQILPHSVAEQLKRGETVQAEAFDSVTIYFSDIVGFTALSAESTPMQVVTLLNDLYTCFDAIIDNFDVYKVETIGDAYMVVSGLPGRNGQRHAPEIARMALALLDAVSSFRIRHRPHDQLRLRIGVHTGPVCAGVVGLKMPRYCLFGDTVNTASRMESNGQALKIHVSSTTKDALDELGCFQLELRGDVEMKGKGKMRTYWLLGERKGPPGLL

Chain of human NPRB (natriuretic peptide receptor B) (human) (P20594 23-1047): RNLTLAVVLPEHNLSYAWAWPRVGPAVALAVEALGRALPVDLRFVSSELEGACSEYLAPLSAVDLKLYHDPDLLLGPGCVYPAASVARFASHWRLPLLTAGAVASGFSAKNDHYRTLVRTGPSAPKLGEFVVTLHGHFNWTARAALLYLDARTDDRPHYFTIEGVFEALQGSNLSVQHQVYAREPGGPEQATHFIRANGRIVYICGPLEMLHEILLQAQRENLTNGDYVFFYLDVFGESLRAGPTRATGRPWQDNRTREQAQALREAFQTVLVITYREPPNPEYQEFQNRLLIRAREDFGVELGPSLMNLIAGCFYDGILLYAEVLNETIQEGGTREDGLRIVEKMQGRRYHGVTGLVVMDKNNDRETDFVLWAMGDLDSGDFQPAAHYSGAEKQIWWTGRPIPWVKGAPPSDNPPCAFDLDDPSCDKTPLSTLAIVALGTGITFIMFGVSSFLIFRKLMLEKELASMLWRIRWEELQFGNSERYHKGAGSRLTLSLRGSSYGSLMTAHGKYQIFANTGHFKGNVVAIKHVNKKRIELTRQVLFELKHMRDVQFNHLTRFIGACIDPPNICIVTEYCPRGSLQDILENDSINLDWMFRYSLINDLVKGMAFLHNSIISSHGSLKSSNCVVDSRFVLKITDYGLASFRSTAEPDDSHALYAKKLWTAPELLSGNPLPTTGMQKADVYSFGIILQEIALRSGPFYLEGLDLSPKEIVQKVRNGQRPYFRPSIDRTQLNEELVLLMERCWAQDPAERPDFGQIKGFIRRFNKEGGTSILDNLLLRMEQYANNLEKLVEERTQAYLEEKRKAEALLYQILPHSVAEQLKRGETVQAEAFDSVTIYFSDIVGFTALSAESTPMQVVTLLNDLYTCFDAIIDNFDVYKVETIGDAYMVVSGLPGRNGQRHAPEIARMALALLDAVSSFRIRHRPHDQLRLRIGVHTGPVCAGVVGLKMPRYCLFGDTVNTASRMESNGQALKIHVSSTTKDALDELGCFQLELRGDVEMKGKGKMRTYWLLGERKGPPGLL

Row | Compound | CL/F [2] [mL/min/kg] | half-life [2] [h] | EC50 [3] [pM] | also measured
1 | CC[C@H](C)[C@@H]1NC(=O)[C@H](CCCNC(=N)N)NC(=O)[C@H](CC(=O)O)NC(=O)[C@H]([C@@H](C)CC)NC(=O)[C@H](CCCNC(=N)N)NC(=O)CNC(=O)CNC(=O)[C@H](Cc2ccccc2)NC(=O)[C@@H](NC(=O)[C@H](CO)NC(=O)[C@H](CO)NC(=O)[C@H](CCCNC(=N)N)NC(=O)[C@H](CCCNC(=N)N)NC(=O)[C@H](Cc2ccncc2)NC(=O)[C@H](CO)NC(=O)CNC(=O)[C@H](CCCCN)NC(=O)[C@H](CCC(=O)O)NC(=O)[C@H](CCCCN)NC(=O)[C@H](CCC(=O)O)NC(=O)[C@H](CCCCN)NC(=O)[C@H](CCC(=O)O)NC(=O)CC[C@H](NC(=O)CCCCCCCCCCCCCCCCCCC(=O)O)C(=O)O)CSSC[C@@H](C(=O)N2CCC[C@H]2C(=O)N[C@@H](CO)C(=O)N[C@@H](Cc2ccccc2)C(=O)N[C@@H](CCCNC(=N)N)C(=O)N[C@@H](Cc2c[nH]cn2)C(=O)NCC(=O)NCC(=O)N2CCC[C@H]2C(=O)N[C@@H](CO)C(=O)N[C@@H](CO)C(=O)NCC(=O)N[C@@H](C)C(=O)N2CCC[C@H]2C(=O)N2CCC[C@H]2C(=O)N2CCC[C@H]2C(=O)N[C@@H](CO)C(N)=O)NC(=O)CNC(=O)[C@H](CC(C)C)NC(=O)CNC(=O)[C@H](CO)NC(=O)[C@H](CCC(N)=O)NC(=O)[C@H](Cc2c[nH]cn2)NC(=O)CNC1=O [Example 1] | 0.343 | 11 |  | EC50 ([1]; cGMP Assay (EC50, pM) w/BSA hNPRA, assay buffer with 0.1% BSA): 11600 pM
2 | CC[C@H](C)[C@@H]1NC(=O)[C@H](CCCNC(=N)N)NC(=O)[C@H](CC(=O)O)NC(=O)[C@H]([C@@H](C)CC)NC(=O)[C@H](CCCNC(=N)N)NC(=O)[C@H](CCCCN)NC(=O)CNC(=O)[C@H](Cc2ccccc2)NC(=O)[C@@H](NC(=O)[C@H](CO)NC(=O)[C@H](CO)NC(=O)[C@H](CCCNC(=N)N)NC(=O)CCNC(=O)[C@H](CCCCN)NC(=O)[C@H](CCC(=O)O)NC(=O)CCOCCOCCOCCOCCOCCOCCOCCOCCOCCOCCOCCOCCOCCOCCOCCOCCOCCOCCOCCOCCOCCOCCOCCOCCNC(=O)CNC(=O)[C@H](CCCCN)NC(=O)[C@H](CCC(=O)O)NC(=O)[C@H](CCCCN)NC(=O)[C@H](CCC(=O)O)NC(=O)[C@H](CCCCN)NC(=O)[C@H](CCC(=O)O)NC(=O)CC[C@H](NC(=O)CCCCCCCCCCCCCCCCCCC(=O)O)C(=O)O)CSCSC[C@@H](C(=O)N2CCC[C@H]2C(=O)N[C@@H](CO)C(=O)N[C@@H](Cc2ccccc2)C(=O)N[C@@H](CCCNC(=N)N)C(=O)N[C@@H](Cc2c[nH]cn2)C(=O)NCC(=O)N[C@@H](CO)C(=O)N2CCC[C@H]2C(=O)N[C@@H](CO)C(=O)N[C@@H](CO)C(=O)NCC(=O)N[C@@H](C)C(=O)N2CCC[C@H]2C(=O)N2CCC[C@H]2C(=O)N2CCC[C@H]2C(=O)N[C@@H](CO)C(N)=O)NC(=O)CNC(=O)[C@H](CC(C)C)NC(=O)CNC(=O)[C@H](CO)NC(=O)[C@H](CCC(N)=O)NC(=O)[C@H](Cc2c[nH]cn2)NC(=O)CNC1=O [Example 4] | 0.0717 | 15 | 22500 | 
3 | HOOC-(CH2)18-CO-(γGlu)-EKEKEKG-PEG24-EK-βAla-RSS[…]PSFRHGGP-NH2 (peptide) |  |  |  | cGMP Assay (EC50, pM) w/BSA, hNPRA [4]: 2960 pM and 1270 pM; cGMP Assay (EC50, pM) w/Casein, hNPRA [4]: 1010 pM and 669 pM
4 | CC[C@H](C)[C@@H]1NC(=O)[C@H](CCCNC(=N)N)NC(=O)[C@H](CC(=O)O)NC(=O)[C@H]([C@@H](C)CC)NC(=O)[C@H](CCCNC(=N)N)NC(=O)CNC(=O)CNC(=O)[C@H](Cc2ccccc2)NC(=O)[C@@H](NC(=O)[C@H](CO)NC(=O)[C@H](CO)NC(=O)[C@H](CCCNC(=N)N)NC(=O)[C@H](CCCNC(=N)N)NC(=O)[C@H](CC(C)C)NC(=O)[C@H](CO)NC(=O)CNC(=O)[C@H](CCCCN)NC(=O)[C@H](CCC(=O)O)NC(=O)[C@H](CCCCN)NC(=O)[C@H](CCC(=O)O)NC(=O)[C@H](CCCCN)NC(=O)[C@H](CCC(=O)O)NC(=O)CC[C@H](NC(=O)CCCCCCCCCCCCCCCCCCC(=O)O)C(=O)O)CSSC[C@@H](C(=O)N[C@@H](CC(N)=O)C(=O)N[C@@H](CO)C(=O)N[C@@H](Cc2ccccc2)C(=O)N[C@@H](CCCNC(=N)N)C(=O)N[C@@H](Cc2ccc(O)cc2)C(N)=O)NC(=O)CNC(=O)[C@H](CC(C)C)NC(=O)CNC(=O)[C@H](CO)NC(=O)[C@H](CCC(N)=O)NC(=O)[C@H](C)NC(=O)CNC1=O [Example 8] | 0.698 | 15 | 493 | blood pressure [5]: decrease in blood pressure; left ventricle diastolic pressure ([5]; PV catheter): reduced left ventricle diastolic pressure; heart weight and tibia length ([5]; indicator of hypertrophy): decrease
5 | human CNP-22 (from UniProt P23582 105-126) (peptide) |  |  |  | cGMP production (HTRF) in HEK293 cells overexpressing NPRB; concentration that defines the 100% response [6]: 1 µM; cGMP production (HTRF) in HEK293 cells overexpressing NPRB; concentration that defines the 100% response [7]: 1 µM
6 | {C20 diacid-γGlu}-EKEKEKG[PEG24]EK[βAla]RSSCFGGKIDRIGHYSGLGCPSFRHGSPSSGAPPPS-NH2 (linker 15-31 via CH2) [Example 6] | 0.108 | 17 |  | EC50 ([1]; cGMP Assay (EC50, pM) w/Casein hNPRA, assay buffer with 0.1% casein): 1530 pM
